Reference: article PMC5392131 (Current topics in behavioral neurosciences, 2017)
pIC50: −log10 of the molar value. Like-named read-outs stand apart in the source and are kept apart here.

What was measured:
[1] = test system: extracellular dopamine in nucleus accumbens; test: In vivo microdialysis in nucleus accumbens, dialysate dopamine; conditions: rat nucleus accumbens; i.v. 3 mg/kg (after 1.0 mg/kg at time zero)
male Sprague–Dawley rats [2] = test: Locomotor activity; format: in vivo, rat; conditions: rats undergoing microdialysis; i.v. 3 mg/kg (after 1.0 mg/kg at time zero)
[3] = Plasma pharmacokinetics of MDPV and metabolites after i.p. MDPV administration; conditions: rat plasma
DAT [4] = test: DAT uptake inhibition in rat brain synaptosomes; format: biochemical; conditions: for DAT/SERT ratio: (DAT IC50)^−1/(SERT IC50)^−1, higher values indicate greater DAT selectivity
NET = NET uptake inhibition in rat brain synaptosomes; format: biochemical; conditions: relative to cocaine
SERT = SERT uptake inhibition in rat brain synaptosomes; format: biochemical; conditions: relative to cocaine
[5] = cited from earlier work
CYP 2D6 = conditions: read-out: CYP 2D6 inhibition IC50; in vitro; cited from earlier work
[6] = test system: extracellular dopamine in nucleus accumbens; conditions: rats, cited from earlier work; for Elevation in extracellular dopamine: i.v. 0.3 mg/kg MDPV, 3.0 mg/kg methylone
male Sprague–Dawley rats [7] = conditions: cited from earlier work
[8] = test system: extracellular 5-HT in nucleus accumbens; conditions: rats; i.v. 3.0 mg/kg methylone; cited from earlier work
DAT [9] = conditions: S-MDPV versus R-MDPV; cited from earlier work
[10] = i.p. MDPV 0.5 mg/kg, mean±SEM, N=6
[11] = i.p. MDPV 1.0 mg/kg, mean±SEM, N=6
[12] = i.p. MDPV 2.0 mg/kg, mean±SEM, N=6
[13] = i.p. MDPV 2.0 mg/kg, mean±SEM, N=6, listed as MPDV

## CCCC(C(=O)c1ccc(O)c(O)c1)N1CCCC1 (centres unmarked) [3,4-Catechol-PV, 3,4-dihydroxypyrovalerone]
[1]
  Effect on extracellular dopamine: small, albeit significant, elevations
Male Sprague–Dawley rats [2]
  Effect on ambulation: no change in ambulation
[3]; [10]
  AUC: 2,822±415 min μg/L
  Cmax: 14 ± 2 ng/mL
  Tmax: 2.67 ± 0.417 h
[3]; [11]
  AUC: 8,317±589 min μg/L
  Cmax: 36 ± 4 ng/mL
  Tmax: 3.15 ± 0.983 h
[3]; [12]
  AUC: 12,762±1,625 min μg/L
  Cmax: 46 ± 9 ng/mL
  Tmax: 3.43 ± 0.417 h

## CCCC(C(=O)c1ccc(O)c(OC)c1)N1CCCC1 (centres unmarked) [4-OH-3-MeO-PV, 4-hydroxy-3-methoxypyrovalerone]
DAT [4]
  DAT/SERT ratio: >12
[3]; [10]
  AUC: 14,657±2,577 min μg/L
  Cmax: 57 ± 7 ng/mL
  Tmax: 2.8 ± 0.45 h
[3]; [11]
  AUC: 28,168±3,373 min μg/L
  Cmax: 135 ± 23 ng/mL
  Tmax: 4.33 ± 0.4 h
[3]; [12]
  AUC: 51,925±7,946 min μg/L
  Cmax: 198 ± 31 ng/mL
  Tmax: 4 ± 0.9 h

## CC(N)Cc1ccccc1 (centres unmarked) [Amphetamine, reference compound]
DAT [4]
  DAT/SERT ratio: 36.75

## COC(=O)[C@H]1[C@@H](OC(=O)c2ccccc2)C[C@@H]2CC[C@H]1N2C [Cocaine, reference compound]
DAT [4]
  DAT/SERT ratio: 1.48

## CCCC(C(=O)c1ccc2c(c1)OCO2)N1CCCC1 (centres unmarked) [MDPV, 3,4-methylenedioxypyrovalerone]
DAT [4]
  DAT/SERT ratio: 816.82
DAT [4]; rat brain synaptosomes, relative to cocaine
  Potency as inhibitor at DAT compared to cocaine: 50 fold
NET
  Potency as inhibitor at NET compared to cocaine: tenfold more potent
SERT
  Potency as inhibitor at SERT compared to cocaine: tenfold less potent
[5]; rat plasma, 2 mg/kg s.c. MDPV
  Half-life (t1/2): about 80 min
[5]; rat, 2 mg/kg s.c. MDPV
  Plasma Cmax: 271 ng/mL
[5]; rat, s.c. MDPV (0.5, 1, 2 mg/kg)
  Time of maximal plasma concentration (Cmax) after injection: 15 to 20 min
[5]; read-out: Plasma Cmax (molar), rat, 2 mg/kg s.c. MDPV
  Cmax: ~1000 nM
CYP 2D6
  pIC50: 5.89
[6]
  Elevation in extracellular dopamine: threefold
[6]; i.v. administration
  Potency to increase dialysate dopamine compared to cocaine: tenfold more potent
Male Sprague–Dawley rats [7]
  Potency as locomotor stimulant compared to cocaine: about tenfold more potent
[3]; [10]
  AUC: 1,114 min μg/L
  Cmax: 20 ± 5 ng/mL
  Tmax: 0.167 ± 0 h
  t1/2: 1.53 ± 0.12 h
[3]; i.p. MDPV 0.5 mg/kg, mean±SEM, N=6, listed as MPDV
  AUC: 1,114±330 min μg/L
[3]; [11]
  AUC: 2,858±859 min μg/L
  Cmax: 54 ± 18 ng/mL
  Tmax: 0.167 ± 0 h
  t1/2: 1.32 ± 0.217 h
[3]; [12]
  AUC: 8,726 min μg/L
  Cmax: 135 ± 29 ng/mL
  Tmax: 0.167 ± 0 h
[3]; [13]
  AUC: 8,726±1,877 min μg/L
  t1/2: 1.65 ± 0.233 h
[3]; i.p. MDPV (0.5, 1, 2 mg/kg)
  Time at which Cmax is achieved: ≤ 10 min
[3]; read-out: Cmax (molar), i.p. MDPV 2 mg/kg
  Cmax: ~500 nM

## CNC(C)C(=O)c1ccc(C)cc1 (centres unmarked) [Mephedrone, 4-methyl-N-methylcathinone, reference compound]
DAT [4]
  DAT/SERT ratio: 0.55

## CNC(C)C(=O)c1ccc2c(c1)OCO2 (centres unmarked) [Methylone, 3,4-methylenedioxy-N-methylcathinone, reference compound]
DAT [4]
  DAT/SERT ratio: 0.77
[6]
  Elevation in extracellular dopamine: threefold
[8]
  Elevation in extracellular 5-HT: tenfold

## CCC[C@@H](C(=O)c1ccc2c(c1)OCO2)N1CCCC1 [S-MDPV]
DAT [9]
  Potency at inhibiting DAT compared to R-MDPV: 100 times

## CCC(C(=O)c1ccccc1)N1CCCC1 (stereo not drawn) [α-PBP, α-pyrrolidinobutiophenone]
DAT [4]
  DAT/SERT ratio: >159

## CC(C(=O)c1ccccc1)N1CCCC1 (stereo not drawn) [α-PPP, α-pyrrolidinopropiophenone]
DAT [4]
  DAT/SERT ratio: >50

## CCCC(C(=O)c1ccccc1)N1CCCC1 (stereo not drawn) [α-PVP, α-pyrrolidinovalerophenone]
DAT [4]
  DAT/SERT ratio: >833
